Experimental data as given in patent US7666619B2, “Compounds and methods for regulating bacterial growth and pathogenesis” (Princeton University, priority 2000, dated 2010).

Columns and labels:
[1] = test system: V. harveyi strains MM32, BB120, BB170; assay: Microtiter crystal violet biofilm formation assay; format: cell-based, Vibrio harveyi
Protocol: (§1) Biofilm formation was measured using a microtiter-based assay. Free-swimming (planktonic) bacteria were cultured in AB or LB media supplemented with glucose in 96 well microtiter dishes. Biofilms typically formed along the walls of the wells at the interface of the liquid and air phase. At the end of the incubation, aliquots of a crystal violet solution (stock 0.1%) were added to the wells to stain both the adherent and the non-adherent cells. The wells were then washed with deionized water to remove non-adherent cells, and the bound crystal violet solubilized with 200 microliters of water. Absorbance reading at 600 nm (A600) were used to quantitate the amount of crystal violet dye that had adhered to the biofilms. When indicated, synthetic AI-2 was added to the wells at the beginning of the cultures.
Various amounts of synthetic AI-2 were added to the initial free-swimming bacterial cultures in LB media supplemented with glucose, and biofilm formation measured at the end of the incubation.

[2] = test system: Pseudomonas aeruginosa (ATCC 27853); assay: Microtiter crystal violet biofilm formation assay; format: cell-based; settings: AB media with glucose; pH-dependent
Protocol: as §1
The effects of AI-2 on biofilm formation were also evaluated in Pseudomonas aeruginosa (ATCC 27853)(FIG. 27). Biofilm formation by this organism is of particular interest because of the association of Pseudomonas aeruginosa biofilms with decreased lung capacity in subjects with cystic fibrosis.

[3] = test system: MM32 indicator strain (LuxS−, LuxN−) of V. harveyi; assay: MM32 bioluminescence assay; format: cell-based, Vibrio harveyi; settings: various doses, 6-hour incubation
Protocol: The MM32 indicator strain (LuxS−, LuxN−) of V. harveyi was incubated with various doses of AI-2 and the bioluminescence signal measured at various time points during a 6-hour incubation.
Exogenous synthetic autoinducer-2 was added at the outset of the assay at a final concentration of 25 μg/ml. QXP-048 was added at the outset of the assay at a final concentration of 25 μg/ml. […] Exogeneous synthetic autoinducer-2 was added at the outset of the assay to a final concentration of 25 μg/ml. QXP-048 was added at the outset of the assay at a final concentration of 25 μg/ml.
The invention provides a luxN− and luxS− strain of V. harveyi, designated MM32, for identifying inhibitors of the quorum-sensing pathway. […] Further, since MM32 cannot produce AI-2, addition of exogenous AI-2 or its analogs allows rapid identification of inhibitors of AI-2.

[4] = Characterization of AI-2 activity: acid, base and heat stability; format: physicochemical
SdiA = assay: Effect of autoinducer on SdiA regulated gene expression (rck::MudJ fusion, β-galactosidase); format: cell-based; settings: AI-2 from E. coli or S. typhimurium, 0.4 M NaCl osmotic shock fluids at 10% (v/v)
Description: It was possible that the AI-2 autoinducer that we have been characterizing in S. typhimurium and E. coli acted through SdiA. […] In E. coli, we assayed an ftsQ1p2p-lacZ reporter, and in S. typhimurium we assayed an rck::MudJ fusion in both an sdiA^+ and sdiA^− background. We tested the effects of addition of LB, 0.4 M NaCl, 0.4 M NaCl osmotic shock fluids containing AI-2 activity from S. typhimurium LT2, E. coli O157, and 0.4 M NaCl osmotic shock fluid from E. coli DH5α.
For ftsQ regulation in E. coli, the plasmids pMS207 and pMS209 were transformed into E. coli strain MC4100 (Silhavy et al., 1984, supra), and the transformants were grown overnight in LB containing 100 mg/L ampicillin at 30° C. with aeration. For rck regulation, S. typhimurium strains BA1105 (rck::MudJ) and BA1305 (rck::MudJ sdiA) were grown overnight in LB containing 100 mg/L kanamycin at 30° C. with aeration. The overnight cultures were diluted 20-fold into fresh medium and grown for an additional 4.5 h. At this time, each culture was divided into five identical aliquots and 10% (v/v) of one of the following was added to each aliquot: LB, 0.4M NaCl, 0.4M osmotic shock fluids from S. typhimurium LT2, E. coli O157 or E. coli strain DH5α (negative control). The osmotic shock fluids were prepared as described above, following pre-growth of the S. typhimurium LT2 and E. coli in LB containing 0.5% glucose for 6 h. […]

CC1=C(O)C(=O)CO1 [AI-2, 4-hydroxy-5-methyl-2h-furan-3-one]
biofilm formation ([1]; MM32 strain, low doses, LB media with glucose): block biofilm formation
biofilm formation ([1]; higher concentrations, all V. harveyi strains tested): stimulated biofilm formation
biofilm formation ([1]; indicator strain BB170, low doses, LB media with glucose): increases the extent of biofilm that forms
biofilm production after addition to the medium ([1]; null mutant (AI-1−/AI-2−) V. harveyi): allows (AI-1−/AI-2−) V. harveyi to produce biofilm
biofilm formation ([1]; wild-type strain BB120, low doses, LB media with glucose): increases the extent of biofilm that forms
biofilm formation [2]: dose-dependent increase in the level of biofilm formation
bioluminescence signal [3]: induction of bioluminescence
stability of activity to acid [4]: acid-stable
stability of activity to base [4]: base-labile
temperature of heating withstood by the activity ([4]; but not 100° C.): about 80 °C
change in β-galactosidase production (SdiA): No change
